Columns and labels:
[1] = Blood partitioning (LC-MS/MS-based depletion method), mouse; type: in vitro ADME; conditions: whole blood, mice blood, 0.3, 1, 3 μM, read-out: BP (blood-to-plasma concentration ratio)
Description: In this study, the partitioning of IDP-73152 in blood samples obtained from mice, rats, dogs, and humans was determined using the LC-MS/MS-based depletion method with slight modifications. DP-73152 was added to an aliquot (1 mL) of blank blood or plasma at a final concentration of 0.3, 1, or 3 μM. The mixture was incubated at 37 °C in a water bath for 60 min. After the incubation, the plasma was separated by centrifugation of the blood samples for 5 min at 10,000× g/4 °C and stored at -80 °C until analysis. The blood-to-plasma concentration ratio (BP) was calculated using the equation:(3) BP=[…], where […] is the concentration of the compound at the corresponding blood concentration in the plasma, and CPL is the concentration from the plasma sample separated from the incubated blood.

[2] = Blood stability in rat blood (CLblood); type: in vitro ADME
Description: In contrast, however, the compound was unstable in the rat blood and plasma. […] The blood containing IDP-73152 was incubated at 37 °C in a water bath, and aliquots (50 μL) were collected from the mixture at 0, 10, 30, 60, 120, and 240 min. The samples were centrifuged for 5 min at 10,000× g/4 °C, and the plasma was collected/stored at -80 °C until analysis. For the estimation of the clearance in the blood (CLblood), in rats, the disappearance of IDP-73152 in the blood was assumed to be mediated by first-order kinetics. […]×total volume of the blood×BP ) to calculate CLblood.

[3] = PBPK model prediction, dogs
Source text: (§1) In this study, the PBPK model involving ten tissues (i.e., adipose tissue, brain, heart, kidney, liver, lung, muscle, skin, spleen, and testis (Figure 2; see Appendix A for detailed mathematical descriptions)) was considered to be applicable for the description of IDP-73152 PK in rats, mice, dogs, and humans. Physiological variables were obtained from the literature; they are summarized in Supplementary Table S1.
(§2) For the estimation of the volume of the distribution of IDP-73512 in rats, the steady-state volume of distribution (Vss) was calculated using the following equation [30]:(10) Vss=VP+Vrbc×EP+∑VT,i×KP,ss,i, where Vp, Vrbc, and VT,i are the volumes of plasma, red blood cells, and tissues, respectively. The erythrocyte-to-plasma partition coefficient (EP), is calculated by EP=1+(BP−1)/Hematocrit . The KP,ss for each tissue obtained from Equation (8) was applied for Equation (10). For the case of non-eliminating organs, the KP,ss was regarded as the tissue-to-plasma partition coefficient (KP) in PBPK equations (Appendix A). For the case of the liver—i.e., the eliminating organ—the KP,ss (KP,ss,LI) had to be corrected to account for the equilibrium being altered by the elimination. Thus, a PBPK-operative KP for liver (KP,LI) was calculated using the following equation [31]:(11) KP,LI=KP,ss,LI/(1−ER), where ER is the hepatic extraction ratio of the compound (i.e., CLh/(QLI·BP)). In this study, a compartmental absorption and transit (CAT) model consisting of stomach and five intestinal segments was considered for the description of the intestinal absorption kinetics of IDP-73152 in animals and humans. We assumed that the initial compartment denoted the stomach (Equation (12)), and the subsequent three compartments represented the small intestine and two additional compartments for the large intestine (i.e., a total of six compartments, with absorption occurring in the five intestinal compartments) (Equation (13)). The differential equations describing the rate of drug absorption and transit in the gastrointestinal tract can be written as:
For the intestine, viz. i = 1~5:(13) dMi/dt=Kt,i−1×Mi−1−(Kt,i+ka,i)×Mi, where Ms is the amount of drug in the stomach; Mi is the amount of drug in the i-th intestinal segment; Ks, Kt,i, and ka,i are the rate constants of gastric emptying, intestinal transit, and the segmental absorption rate, respectively. In Equation (13) at i = 1, Kt,0 and M0 represent Ks and Ms, respectively. […] The absorption rate constant in the intestinal segments in humans, ka,i,human, was assumed to be identical along the segments and calculated as follows: first, Peff was empirically estimated from the Caco-2 cell permeability (Papp):(14) LogPeff=0.4926×LogPapp−0.1454 […]

[4] = PBPK model prediction, humans
Source text: as §1, §2
For the intestine, viz. i = 1~5:(13) dMi/dt=Kt,i−1×Mi−1−(Kt,i+ka,i)×Mi, where Ms is the amount of drug in the stomach; Mi is the amount of drug in the i-th intestinal segment; Ks, Kt,i, and ka,i are the rate constants of gastric emptying, intestinal transit, and the segmental absorption rate, respectively. […] The absorption rate constant in the intestinal segments in humans, ka,i,human, was assumed to be identical along the segments and calculated as follows: first, Peff was empirically estimated from the Caco-2 cell permeability (Papp):(14) LogPeff=0.4926×LogPapp−0.1454
Then, ka,i,human for the intestinal segments i = 1~5 was calculated by (15) ka,1~5,human=2×Peff/R […]

[5] = test system: vancomycin-resistant Enterococcus faecium; conditions: infected mice, twice-a-day dosing; cited from earlier work

CC(C)(C)[C@H](NC(=O)[C@H](CC1CCCC1)CN(O)C=O)C(=O)N1CCC(NCc2cc(F)c(F)cc2F)CC1 [IDP-73152]
blood plasma ratio at 60 min [1]: 1.31 ± 0.13 | CLblood ([2]; fresh whole blood from rats, 1 μM, 37 °C): 0.717 ± 0.383 mL/min/kg | contribution of CLblood to the CLp ([2]; rats): 2.15% | AUC ratio ([3]; intravenous 10 mg/kg): 1.13 | Cmax ratio without the scaling (SF) ([3]; oral): 0.760 | AUC ratio ([3]; oral 20 mg/kg): 1.08 | Cmax ratio ([3]; oral 20 mg/kg): 0.832 | AUC ratio ([4]; oral 640 mg): 1.00 | Cmax ratio ([4]; oral 640 mg): 0.498 | AUC ratio ([4]; oral 1280 mg): 1.12 | Cmax ratio ([4]; oral 1280 mg): 0.671 | ED50 (oral dose at which the survival rate was 50%) [5]: 13.3 mg/kg

Reference: publication PMC9227536, “Prediction of Pharmacokinetics of IDP-73152 in Humans Using Physiologically-Based Pharmacokinetics” (Pharmaceutics, 2022)
